In article PMC4926365, “Expression and Characterization of a Novel Glycerophosphodiester Phosphodiesterase from Pyrococcus furiosus DSM 3638 That Possesses Lysophospholipase D Activity” (International Journal of Molecular Sciences, 2016):

Target: T1, pfGDPD (Pyrococcus furiosus, UniProt Q8TZI9)
T1 construct: gene PF2003; full length 253 aa, no signal peptide; synthetic gene in pET28a, N- and C-terminal His6 tags kept; E. coli SHuffle T7; Ni-NTA; 34,059 Da
T1 sequence (Q8TZI9 1-253): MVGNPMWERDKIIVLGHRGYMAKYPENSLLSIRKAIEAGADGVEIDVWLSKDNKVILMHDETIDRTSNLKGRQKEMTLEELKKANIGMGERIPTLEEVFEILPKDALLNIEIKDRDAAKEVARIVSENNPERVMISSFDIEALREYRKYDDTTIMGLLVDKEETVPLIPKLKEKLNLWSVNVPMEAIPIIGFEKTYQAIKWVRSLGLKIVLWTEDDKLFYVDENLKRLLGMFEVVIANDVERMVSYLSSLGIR
Test: colorimetric p-nitrophenol release
Type: biochemical
Conditions: Mn2+ (best at 5 mM), 50 mM Tris-HCl pH 8.5, 55 °C

Question: With `O=[N+]([O-])c1ccc(OP(=O)(O)Oc2ccc([N+](=O)[O-])cc2)cc1` [bis(p-nitrophenyl) phosphate] as the compound, how does the colorimetric p-nitrophenol release read?
Answer: The optimal temperature of recombinant pfGDPD was determined using BpNPP as substrate
